Consider 14 molecules from patent publication US11254686B1 (Corvus Pharmaceuticals, Inc., priority 2017, dated 2022).

Broadly, the IC50 is the point on the concentration scale where inhibition reaches its midpoint. For orientation: hepatocyte CLint means the rate of metabolic loss divided by the concentration.

The target in one data set is adenosine A2B receptor (Homo sapiens (Human), UniProt P29275). The data set can be described thus: Adenosine receptor activity assay (Table 1), A2B activity. It counts as biochemical. To be noted: for Ratio: A2A activity to A2B activity (A2A/A2B); for IC50: read-out: Ave A2B cAMP IC50.
A further data set concerns the target adenosine A2A receptor (Homo sapiens (Human), UniProt P29274). Nature of the data set: Adenosine receptor activity assay (Table 1), A2A activity. It is filed as biochemical. The settings on record: read-out: Ave A2A cAMP IC50.
Data set [1] has as its target T1, adenosine A1 receptor (Homo sapiens (Human), UniProt P30542). The data set can be described thus: A1 cAMP IC50 assay (Table 1). It is filed as biochemical.
In data set [2] the target is T2, adenosine A3 receptor (Homo sapiens (Human), UniProt P0DMS8). Nature of the data set: A3 cAMP IC50 assay (Table 1). It is filed as biochemical.
The next data set addresses CYP3A4 (Homo sapiens (Human), UniProt P08684). Nature of the data set: CYP450 inhibition at 10 μM, CYP3A4. It is filed as in vitro ADME. To be noted: human, 10 μM, read-out: CYP 450 % INH @ 10 μM.
In another data set the target is CYP2D6 (Homo sapiens (Human), UniProt P10635). The data set can be described thus: CYP450 inhibition at 10 μM, CYP2D6. It is filed as in vitro ADME. The settings on record: read-out: CYP 450 % INH @ 10 μM.
Data set [3] is described as follows: Liver microsome (LM) intrinsic clearance, rat. It is filed as in vitro ADME.
Data set [4] can be described thus: Liver microsome (LM) intrinsic clearance, human. It is filed as in vitro ADME. For orientation: Microsomes from liver hold many membrane-bound enzymes, among them those of drug oxidation.
A short description of data set [5]: Hepatocyte (Hep) intrinsic clearance, rat. It is filed as in vitro ADME. The settings on record: hepatocytes.
Data set [6] can be described thus: Hepatocyte (Hep) intrinsic clearance, human. It counts as in vitro ADME. The settings on record: hepatocytes.
Data set [7] deals with T1, adenosine A1 receptor. Nature of the data set: Adenosine receptor activity assay (Table 1), A1 cAMP. It is filed as cell-based.
Data set [8] addresses T2, adenosine A3 receptor. The data set can be described thus: Adenosine receptor activity assay (Table 1), A3 cAMP. It is filed as cell-based.
Data set [9] deals with CYP 450 (isoform not given). The data set can be described thus: CYP450 inhibition at 10 μM. It counts as in vitro ADME. To be noted: read-out: CYP 450 % INH @ 10 μM.
Data set [10] is described as follows: Hepatocyte intrinsic clearance, rat. It counts as in vitro ADME. The settings on record: hepatocytes.
Data set [11] can be described thus: Hepatocyte intrinsic clearance, human. It is filed as in vitro ADME. The settings on record: hepatocytes.

Chain of CYP3A4 (P08684 whole entry): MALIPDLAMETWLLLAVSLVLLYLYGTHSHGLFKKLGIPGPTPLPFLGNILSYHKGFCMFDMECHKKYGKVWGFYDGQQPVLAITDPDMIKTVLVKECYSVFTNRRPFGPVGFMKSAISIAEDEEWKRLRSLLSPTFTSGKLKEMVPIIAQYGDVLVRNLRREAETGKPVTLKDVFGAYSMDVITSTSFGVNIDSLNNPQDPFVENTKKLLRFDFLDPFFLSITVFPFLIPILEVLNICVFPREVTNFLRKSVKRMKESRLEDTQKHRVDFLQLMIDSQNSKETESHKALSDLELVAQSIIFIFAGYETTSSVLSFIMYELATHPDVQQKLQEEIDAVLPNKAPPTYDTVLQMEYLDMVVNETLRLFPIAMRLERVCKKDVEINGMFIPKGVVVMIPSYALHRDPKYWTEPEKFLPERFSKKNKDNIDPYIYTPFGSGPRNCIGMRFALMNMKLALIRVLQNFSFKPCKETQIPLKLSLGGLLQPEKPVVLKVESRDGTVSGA
T2 sequence (P0DMS8 whole entry): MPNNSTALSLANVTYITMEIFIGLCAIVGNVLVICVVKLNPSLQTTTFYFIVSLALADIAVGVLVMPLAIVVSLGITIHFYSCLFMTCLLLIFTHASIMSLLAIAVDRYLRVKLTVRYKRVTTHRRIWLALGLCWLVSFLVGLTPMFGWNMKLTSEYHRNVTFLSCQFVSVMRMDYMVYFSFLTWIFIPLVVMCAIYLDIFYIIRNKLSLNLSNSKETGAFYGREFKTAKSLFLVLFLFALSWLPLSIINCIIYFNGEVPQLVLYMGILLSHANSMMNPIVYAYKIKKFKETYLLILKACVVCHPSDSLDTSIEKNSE
Chain of adenosine A2B receptor (P29275 whole entry): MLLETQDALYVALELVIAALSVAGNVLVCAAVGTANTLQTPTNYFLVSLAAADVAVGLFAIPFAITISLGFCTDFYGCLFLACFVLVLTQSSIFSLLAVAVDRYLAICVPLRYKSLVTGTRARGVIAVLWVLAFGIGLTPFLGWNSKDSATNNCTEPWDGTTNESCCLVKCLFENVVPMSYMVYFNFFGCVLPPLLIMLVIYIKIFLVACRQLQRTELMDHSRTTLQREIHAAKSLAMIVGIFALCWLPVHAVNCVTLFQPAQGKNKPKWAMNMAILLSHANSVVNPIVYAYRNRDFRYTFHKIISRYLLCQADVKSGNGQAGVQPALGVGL
Chain of CYP2D6 (P10635 whole entry): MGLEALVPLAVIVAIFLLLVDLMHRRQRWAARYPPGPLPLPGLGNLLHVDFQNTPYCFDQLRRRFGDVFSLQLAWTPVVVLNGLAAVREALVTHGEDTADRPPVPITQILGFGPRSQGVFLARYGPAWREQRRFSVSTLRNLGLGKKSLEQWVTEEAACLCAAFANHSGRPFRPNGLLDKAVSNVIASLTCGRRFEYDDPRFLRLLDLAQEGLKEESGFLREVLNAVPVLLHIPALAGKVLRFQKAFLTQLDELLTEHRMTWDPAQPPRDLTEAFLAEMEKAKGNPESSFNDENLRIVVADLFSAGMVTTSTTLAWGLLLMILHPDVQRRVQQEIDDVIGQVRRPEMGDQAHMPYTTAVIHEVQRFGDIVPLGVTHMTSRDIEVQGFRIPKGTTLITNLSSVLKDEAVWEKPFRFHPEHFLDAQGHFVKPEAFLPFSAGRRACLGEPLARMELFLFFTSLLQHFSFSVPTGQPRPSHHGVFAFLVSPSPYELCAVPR
Chain of adenosine A2A receptor (P29274 whole entry): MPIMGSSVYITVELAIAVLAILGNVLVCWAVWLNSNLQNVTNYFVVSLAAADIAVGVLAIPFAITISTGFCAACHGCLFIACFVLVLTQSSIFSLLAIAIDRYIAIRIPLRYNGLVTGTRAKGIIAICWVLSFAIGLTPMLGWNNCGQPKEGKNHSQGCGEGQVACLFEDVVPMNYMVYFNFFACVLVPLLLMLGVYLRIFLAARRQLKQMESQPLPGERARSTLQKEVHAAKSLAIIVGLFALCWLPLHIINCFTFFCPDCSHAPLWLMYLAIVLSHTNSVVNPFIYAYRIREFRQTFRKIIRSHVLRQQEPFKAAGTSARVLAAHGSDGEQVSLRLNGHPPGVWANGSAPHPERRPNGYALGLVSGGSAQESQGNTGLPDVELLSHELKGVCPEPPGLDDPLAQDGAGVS
T1 sequence (P30542 whole entry): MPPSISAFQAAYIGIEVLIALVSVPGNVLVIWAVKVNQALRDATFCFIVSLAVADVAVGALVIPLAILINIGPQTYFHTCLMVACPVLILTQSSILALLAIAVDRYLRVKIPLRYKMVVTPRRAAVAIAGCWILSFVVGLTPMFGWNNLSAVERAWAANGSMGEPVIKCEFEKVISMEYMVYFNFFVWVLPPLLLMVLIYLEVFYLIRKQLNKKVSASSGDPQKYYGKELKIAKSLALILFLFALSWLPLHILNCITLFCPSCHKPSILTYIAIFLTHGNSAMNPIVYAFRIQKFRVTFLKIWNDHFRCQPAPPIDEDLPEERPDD

For `O=C(c1nc(NCc2cncc(F)c2)nc2ccsc12)N1CCC1` [Example Z61, Azetidin-1-yl(2-(((5-fluoropyridin-3-yl)methyl)amino)thieno[3,2-d]pyrimidin-4-yl)methanone], on adenosine A2B receptor, the Ratio worked out at 84.42. In addition, the IC50 on adenosine A2B receptor was less than 10 nM; at adenosine A2A receptor, 100 to 500 nM; at adenosine A1 receptor [1], more than 500 nM; at adenosine A3 receptor [2] it was more than 500 nM. Further, the inhibition at 10 µM was determined as 38% on CYP3A4 and 10% at CYP2D6. Besides, the “LM CLint” value amounted to 44.58 μL/min/mg/protein in [3] and 33.16 μL/min/mg/protein in data set [4]. Further, the hepatocyte CLint in data set [5] came out at 44.9 µL/min/1e6 cells; in data set [6], 15.4 µL/min/1e6 cells.
For the molecule `O=C(c1nc(NCc2cncc(F)c2)nc2ccsc12)N1CC[C@H](O)C1` [Example Z62, (S)-(2-(((5-Fluoropyridin-3-yl)methyl)amino)thieno[3,2-d]pyrimidin-4-yl)(3-hydroxypyrrolidin-1-yl)methanone], the Ratio on adenosine A2B receptor came to 60.76. Moreover, the IC50 at adenosine A2B receptor was 10 to 50 nM; at adenosine A2A receptor, more than 500 nM; on adenosine A1 receptor [1], more than 500 nM; at adenosine A3 receptor [2], more than 500 nM. The inhibition at 10 µM on CYP3A4 came out at 34%; on CYP2D6, 5%. Also, the “LM CLint” value in data set [3] stood at 12.51 μL/min/mg/protein; in data set [4], 10.76 μL/min/mg/protein. For the same molecule, the hepatocyte CLint amounted to 25.6 µL/min/1e6 cells in data set [5] and 7.12 µL/min/1e6 cells in data set [6].
Regarding `C[C@H]1CCN(C(=O)c2nc(N[C@@H](C)c3cccnc3)nc3ccsc23)C1` [Example Z63, ((S)-3-Methylpyrrolidin-1-yl)(2-(((S)-1-(pyridin-3-yl)ethyl)amino)thieno[3,2-d]pyrimidin-4-yl)methanone], the Ratio on adenosine A2B receptor was 12.78. The IC50 at adenosine A2B receptor is 10 to 50 nM; at adenosine A2A receptor it was 100 to 500 nM; against adenosine A1 receptor [1], more than 500 nM; on adenosine A3 receptor [2], more than 500 nM. Also, the inhibition at 10 µM was found to be 83% on CYP3A4 and 39% at CYP2D6. The entries for the “LM CLint” value in data set [3] and in [4] were 71.55 μL/min/mg/protein and 47.64 μL/min/mg/protein, respectively. Moreover, the hepatocyte CLint amounted to 65.9 µL/min/1e6 cells in [5] and 24.5 µL/min/1e6 cells in data set [6].
Consider `C[C@H](Nc1nc(C(=O)N2CC(O)C2)c2sccc2n1)c1cncc(F)c1` [Example Z198, (S)-(2-((1-(5-Fluoropyridin-3-yl)ethyl)amino)thieno[3,2-d]pyrimidin-4-yl)(3-hydroxyazetidin-1-yl)methanone], for which, at adenosine A2B receptor, the Ratio amounted to 52.81. Further, the IC50 on adenosine A2B receptor was less than 10 nM; at adenosine A2A receptor it was 100 to 500 nM; against adenosine A1 receptor [7] it was more than 500 nM; against adenosine A3 receptor [8], more than 500 nM. Also, the inhibition at 10 µM in data set [9] was 27%. The intrinsic clearance (hepatocyte CLint) was 20.6 µL/min/1e6 cells in [10] and 6.78 µL/min/1e6 cells in [11].
Regarding `Cc1cc2nc(N[C@@H](C)c3cncc(F)c3)nc(C(=O)N3CC[C@H](O)C3)c2s1` [Example Z249, (2-(((S)-1-(5-Fluoropyridin-3-yl)ethyl)amino)-6-methylthieno[3,2-d]pyrimidin-4-yl)((S)-3-hydroxypyrrolidin-1-yl)methanone], the Ratio on adenosine A2B receptor is reported as 197.12. Besides, the half-inhibitory concentration (IC50) on adenosine A2B receptor was less than 10 nM; at adenosine A2A receptor, 100 to 500 nM; against adenosine A1 receptor [7], more than 500 nM; against adenosine A3 receptor [8], more than 500 nM. For the same molecule, the intrinsic metabolic clearance (hepatocyte CLint) in [10] is 20.9 µL/min/1e6 cells; in data set [11], 4.53 µL/min/1e6 cells.
As to `Cc1cc2nc(N[C@@H](C)c3cncc(F)c3)nc(C(=O)N3CC[C@@H](O)C3)c2s1` [Example Z250, (2-(((S)-1-(5-Fluoropyridin-3-yl)ethyl)amino)-6-methylthieno[3,2-d]pyrimidin-4-yl)((R)-3-hydroxypyrrolidin-1-yl)methanone], the Ratio at adenosine A2B receptor is recorded as 179.59. Also, the IC50 on adenosine A2B receptor was less than 10 nM; on adenosine A2A receptor, 100 to 500 nM; at adenosine A1 receptor [7], more than 500 nM; at adenosine A3 receptor [8] it was more than 500 nM. The hepatocyte CLint stood at 23.9 µL/min/1e6 cells in data set [10] and 11.9 µL/min/1e6 cells in data set [11].
As for `CO[C@@H]1CCN(C(=O)c2nc(N[C@@H](C)c3cncc(F)c3)nc3ccsc23)C1` [Example Z251, (2-(((S)-1-(5-Fluoropyridin-3-yl)ethyl)amino)thieno[3,2-d]pyrimidin-4-yl)((R)-3-methoxypyrrolidin-1-yl)methanone], the Ratio on adenosine A2B receptor amounted to 19.74. Moreover, the IC50 at adenosine A2B receptor was less than 10 nM; at adenosine A2A receptor it was 100 to 500 nM; on adenosine A1 receptor [7], more than 500 nM; against adenosine A3 receptor [8], more than 500 nM. In data set [9], the inhibition at 10 µM turned out to be 49.1%.
For the molecule `CO[C@H]1CCN(C(=O)c2nc(N[C@@H](C)c3cncc(F)c3)nc3ccsc23)C1` [Example Z252, (2-(((S)-1-(5-Fluoropyridin-3-yl)ethyl)amino)thieno[3,2-d]pyrimidin-4-yl)((S)-3-methoxypyrrolidin-1-yl)methanone], the Ratio at adenosine A2B receptor is 19.78. Also, the IC50 at adenosine A2B receptor is 10 to 50 nM; on adenosine A2A receptor, 100 to 500 nM; against adenosine A1 receptor [7], more than 500 nM; against adenosine A3 receptor [8], more than 500 nM. In data set [9], the inhibition at 10 µM is 55.9%.
With `Cc1cc2nc(N[C@@H](C)c3cncc(F)c3)nc(C(=O)N3CC(O)C3)c2s1` [Example Z267, (S)-(2-((1-(5-Fluoropyridin-3-yl)ethyl)amino)-6-methylthieno[3,2-d]pyrimidin-4-yl)(3-hydroxyazetidin-1-yl)methanone], the Ratio at adenosine A2B receptor is listed as 105.81. Further, the IC50 on adenosine A2B receptor was less than 10 nM; at adenosine A2A receptor, 50 to 100 nM; at adenosine A1 receptor [7], 50 to 100 nM; at adenosine A3 receptor [8], 50 to 100 nM. The figures for the hepatocyte CLint in [10] and in data set [11] were 45.9 µL/min/1e6 cells and 9.44 µL/min/1e6 cells, respectively.
As for `Cc1cc2nc(N[C@@H](C)c3cncc(F)c3)nc(C(=O)NC[C@H](C)O)c2s1` [Example Z277, 2-(((S)-1-(5-Fluoropyridin-3-yl)ethyl)amino)-N—((S)-2-hydroxypropyl)-6-methylthieno[3,2-d]pyrimidine-4-carboxamide], at adenosine A2B receptor, the Ratio turned out to be 167.29. Besides, the IC50 is less than 10 nM on adenosine A2B receptor, 100 to 500 nM at adenosine A2A receptor, 50 to 100 nM against adenosine A1 receptor [7] and 50 to 100 nM against adenosine A3 receptor [8]. In addition, the intrinsic metabolic clearance (hepatocyte CLint) was found to be 65.9 µL/min/1e6 cells in [10] and 16.4 µL/min/1e6 cells in data set [11].
Regarding `Cc1cc2nc(N[C@@H](C)c3cncc(F)c3)nc(C(=O)NC[C@@H](C)O)c2s1` [Example Z278, 2-(((S)-1-(5-Fluoropyridin-3-yl)ethyl)amino)-N—((R)-2-hydroxypropyl)-6-methylthieno[3,2-d]pyrimidine-4-carboxamide], on adenosine A2B receptor, the Ratio is reported as 87.33. The IC50 on adenosine A2B receptor is less than 10 nM; at adenosine A2A receptor it was 50 to 100 nM; against adenosine A1 receptor [7], 50 to 100 nM; at adenosine A3 receptor [8], 50 to 100 nM. The hepatocyte CLint in data set [10] came to 43.3 µL/min/1e6 cells; in data set [11], 14.8 µL/min/1e6 cells.
For the molecule `Cc1cc2nc(N[C@@H](C)c3cccnc3)nc(C(=O)N3CC[C@@H](O)C3)c2s1` [Example Z281, ((R)-3-Hydroxypyrrolidin-1-yl)(6-methyl-2-(((S)-1-(pyridin-3-yl)ethyl)amino)thieno[3,2-d]pyrimidin-4-yl)methanone], the Ratio on adenosine A2B receptor is 88.64. The IC50 at adenosine A2B receptor is 10 to 50 nM; on adenosine A2A receptor, more than 500 nM; at adenosine A1 receptor [7] it was more than 500 nM; on adenosine A3 receptor [8], more than 500 nM. Also, the intrinsic metabolic clearance (hepatocyte CLint) in data set [10] came to 18.6 µL/min/1e6 cells; in [11] it was 5.45 µL/min/1e6 cells.
For `Cc1cc2nc(N[C@@H](C)c3cccnc3)nc(C(=O)N3CC[C@H](O)C3)c2s1` [Example Z297, ((S)-3-Hydroxypyrrolidin-1-yl)(6-methyl-2-(((S)-1-(pyridin-3-yl)ethyl)amino)thieno[3,2-d]pyrimidin-4-yl)methanone], the Ratio at adenosine A2B receptor is given as 227.82. The IC50 on adenosine A2B receptor was less than 10 nM; at adenosine A2A receptor, more than 500 nM; against adenosine A1 receptor [7], more than 500 nM; against adenosine A3 receptor [8], more than 500 nM. The figures for the intrinsic metabolic clearance (hepatocyte CLint) in data set [10] and in data set [11] were 22.6 µL/min/1e6 cells and 3.47 µL/min/1e6 cells, respectively.
Consider `C[C@H](Nc1nc(C(=O)N2CC[C@H](O)C2)c2sc(C(F)(F)F)cc2n1)c1cccnc1` [Example Z333, ((S)-3-Hydroxypyrrolidin-1-yl)(2-(((S)-1-(pyridin-3-yl)ethyl)amino)-6-(trifluoromethyl)thieno[3,2-d]pyrimidin-4-yl)methanone], for which the Ratio at adenosine A2B receptor is reported as 146.28. Also, the IC50 at adenosine A2B receptor is 10 to 50 nM; on adenosine A2A receptor, more than 500 nM; at adenosine A1 receptor [7] it was more than 500 nM; at adenosine A3 receptor [8], more than 500 nM. Also, the intrinsic metabolic clearance (hepatocyte CLint) was 25.7 µL/min/1e6 cells in data set [10] and 19.5 µL/min/1e6 cells in [11].
